# According to patent US20090317376A1, “Compositions And Methods For Lipo Modeling” (Georgetown University MEDICAL SCHOOL, priority 2005, published 2009):
# Test system: endothelial cells
# Experiment: Endothelial cell proliferation (mitogenic assay)
# Format: cell-based, human
# Excerpt: To mimic stress-released NPY in vitro, conditioned media from, or coculture with, neuroblastoma SKNBE cells (a model of sympathetic neurons which release 0.1 pM NPY) is used to treat endothelial cells and 3T3-L1 preadipocytes. Both cell lines express all NPYRs but lack NPY (confirmed by RT-PCR and IHC, FIG. […] 6). […] When 3T3-L1 preadipocytes are cocultured with HMVEC, there is no significant mitogenic response between treated and untreated cells.
# Co-culture: For mitogenic assay and expression studies, co-culture is performed in a Costar Transwell system. Cells are plated on the 6-well plates and the inserts with 0.4 μm Polyester membranes. After they reach 30% confluence, the inserts are placed into plates with other cells. Co-culture of neuroblastomas/SCG neurons with aECs are carried out in EC media and with preadipocytes—in preadipocyte growth media. […] After 48 h, the cells are counted with a coulter counter. […]
# Mitogenic assays: 3T3-L1 pre-adipocytes are allowed to grow to 30% confluency before serum-starving the cells. […] Proliferation is determined by cell counting using a coulter counter (Beckman Coulter, Miami, Fla.). […] After 24 h, cells are harvested in a 96-well harvester (Tomtec) and counted in a Betaplate Liquid Scintillation Counter (Wallac).
# 1. […] After 24 h, cells were harvested in a 96-well harvester (Tomtec) and counted in a Betaplate Liquid Scintillation Counter (Wallac). […]
compound,measurement,setting,value
neuropeptide Y [NPY],endothelial cell proliferation,NPY treatment of endothelial cells,stimulated
N=C(N)NCCC[C@H](NC(=O)CC1(CC(=O)N2CCN(C3c4ccccc4NC(=O)c4ccccc43)CC2)CCCC1)C(=O)NCCn1c(=O)n(-c2ccccc2)n(-c2ccccc2)c1=O (some centres unmarked) [BIIE0246],block of NPY- and neuroblastoma-conditioned media-stimulated endothelial cell proliferation,BIIE0246 1 μM,blocked
